Source: patent publication US4055640A, “Compositions and methods for controlling the growth of bacteria, fungi and algae using certain derivatives of N-(2,2-dichlorovinyl)salicylamides” (Nippon Kayaku Co., Ltd., priority 1975, dated 1977)
Counter-ions that a name gives are not always drawn.

Columns and labels:
[1] = acute oral toxicity against a mouse; conditions: in vivo
[2] = system: seedling blight of rice plant (pathogen Fusarium sp. and Rhizoctonia sp.); assay: Exterminating test on seedling blight of rice plant (Experimental Example 1); assay type: in vivo; conditions: soil, 408 h, 0.25g/box a.i., 5% dust mixed with soil; read-out: Percentage of healthy seedlings
Procedure, shortened: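 Pathogen-contaminated nursery soil (Fusarium sp., Rhizoctonia sp.) mixed with 5% compound dust at 5 g per box; Nihonbare rice sown, grown 7 days at 17° C in lighting chamber, then moved to field. Assessed 10 days later as percentage of healthy seedlings; commercial 4% hydroxyisoxazol dust run as control.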

[3] = system: fungi in the paints or the cutting oil; assay: Growth of fungi in paints or cutting oil (Example 11); conditions: oil soluble concentrate, 0.1%
Procedure: The above ingredients were mixed. An oil soluble concentrate was obtained. In the form of the oil soluble concentrate, Compound No. 1 was added to paints or the cutting oil in an amount of 0.1%.

[4] = system: Penicillium Citrinum; assay: Region of growth-inhibition around treated cotton cloth (Example 26); assay type: cell-based; conditions: emulsifiable concentrate diluted 100 times
Procedure: (§1) The emulsifiable concentrates which were prepared by Example 20 were diluted with water 100 times to form an emulsion. A cloth of cotton was soaked into each emulsion for 2 minutes. The clothes were dried at room temperature and cut into a square of which a side was 1 cm long. Each kind of test bacteria and fungi was inoculated, separately, on plates of potato-agar and one square cloth placed on each of such plates. Test bacteria and fungi were cultivated at 28° C for 4 days. The width of the region of growth-inhibition which was formed a circumference of the cloth was measured.

[5] = system: Bacillus subtilis; assay: as above; assay type: cell-based; conditions: emulsifiable concentrate diluted 100 times
Procedure: as §1

[6] = system: Aspergillus niger; assay: as above; assay type: cell-based; conditions: emulsifiable concentrate diluted 100 times
Procedure: as §1

[7] = system: Staphylococcus oureus; assay: as above; assay type: cell-based; conditions: emulsifiable concentrate diluted 100 times
Procedure: as §1

[8] = system: Bacteria, fungi and slime; assay: Inhibition of bacteria, fungi and slime in use (Example 13); conditions: water soluble concentrate; 10-20 ppm in water, 0.01%-0.1% in pastes
Procedure: Before application, the concentrate was diluted 500-1000 times with water and sprayed on the inside of cotes to prevent the growth of bacterial and fungi.
The solution was added to water in circular water systems to inhibit the growth of slime. The concentration of Compound No. 20 in the water was 10-20 ppm.
An amount from 0.01%-0.1% of Compound No. 20 as the solution was added to pastes or binding agents to prevent rottenness of them.

[9] = system: Penicillium Citrinum; assay: Growth inhibition zone around treated cotton cloth (Example 18); assay type: cell-based; conditions: emulsifiable concentrate diluted 1000 times
Procedure: as §1, with “by Example 10 were diluted” for “by Example 20 were diluted”, “with water 1000 times to” for “with water 100 times to”, “was inoculated, separately on plates” for “was inoculated, separately, on plates”, “square cloth was placed on” for “square cloth placed on”, “cloth was examined.” for “cloth was measured.”

[10] = system: Bacillus subtilis; assay: as above; assay type: cell-based; conditions: emulsifiable concentrate diluted 1000 times
Procedure: as §1, with “by Example 10 were diluted” for “by Example 20 were diluted”, “with water 1000 times to” for “with water 100 times to”, “was inoculated, separately on plates” for “was inoculated, separately, on plates”, “square cloth was placed on” for “square cloth placed on”, “cloth was examined.” for “cloth was measured.”

[11] = system: Aspergillus niger; assay: as above; assay type: cell-based; conditions: emulsifiable concentrate diluted 1000 times
Procedure: as §1, with “by Example 10 were diluted” for “by Example 20 were diluted”, “with water 1000 times to” for “with water 100 times to”, “was inoculated, separately on plates” for “was inoculated, separately, on plates”, “square cloth was placed on” for “square cloth placed on”, “cloth was examined.” for “cloth was measured.”

[12] = system: Staphylococcus aureus; assay: as above; assay type: cell-based; conditions: emulsifiable concentrate diluted 1000 times
Procedure: as §1, with “by Example 10 were diluted” for “by Example 20 were diluted”, “with water 1000 times to” for “with water 100 times to”, “was inoculated, separately on plates” for “was inoculated, separately, on plates”, “square cloth was placed on” for “square cloth placed on”, “cloth was examined.” for “cloth was measured.”

[13] = system: green algae; assay: Degree of propagation on slime test boards (Example 19); assay type: cell-based; parameters: key: -: no propagation; +: the area of propagation is 1 - 25% on the slime test boards.; ++: the area of propagation is 26 - 50% on the slime test boards.; +++: the area of propagation is 51 - 75% on the slime test boards.; ++++: the area of propagation is 76 - 100% on the slime test boards
Procedure: (§2) Zero point zero two (0.02) part of active compounds in the form of 10% water soluble concentrate which was prepared by Example 13 was added into 100 parts of Waxman's liquid medium. Pieces of wood and iron (hereafter referred to as the slime test boards) were soaked into the Waxman's liquid medium. The bacteria which were gathered from circular water system were inoculated upon the Waxman's liquid medium and incubated at 27° C-34° C by shaking culture. The degree of propagation of the bacteria on the slime test boards was examined.
(§3) The growth-inhibiting activity of active compounds against the fungi and the green algae was also examined by the same method as mentioned above.
(§4) The degree of propagation of the bacteria, fungi or green algae on the slime test boards is defined in terms of the following symbols.

[14] = system: fungi; assay: as above; assay type: cell-based; parameters: key: -: no propagation; +: the area of propagation is 1 - 25% on the slime test boards.; ++: the area of propagation is 26 - 50% on the slime test boards.; +++: the area of propagation is 51 - 75% on the slime test boards.; ++++: the area of propagation is 76 - 100% on the slime test boards
Procedure: as §2, §3, §4

[15] = system: bacteria gathered from circular water system; assay: as above; assay type: cell-based; parameters: key: -: no propagation; +: the area of propagation is 1 - 25% on the slime test boards.; ++: the area of propagation is 26 - 50% on the slime test boards.; +++: the area of propagation is 51 - 75% on the slime test boards.; ++++: the area of propagation is 76 - 100% on the slime test boards
Procedure: as §2, §3, §4

[16] = system: Aspergillus niger, Penicillium citrinum, Cladosporium harbarum and chaetomium globosum; assay: Degree of growth inhibition of fungi on treated beach plates (Example 17); assay type: cell-based; parameters: scale not given here; conditions: numerical rating, 2 weeks
Procedure, shortened: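 Beech plates were dipped for 2 minutes in emulsifiable concentrate diluted 400- and 800-fold in water, then dried for 24 hours. They were laid on agar and sprayed with spores of each fungus, then incubated at 95% humidity and 28° C for 2 weeks. Growth inhibition was scored on a numerical rating scale.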

With O=C(NC=C(Cl)Cl)c1ccccc1O [Compound No. 1, N-(β,β-dichlorovinyl) salicylamide] the LD50 [1] was over 6000 mg/kg, the Percentage of healthy seedlings at 0.25 g/box [2] was 80.2% and the “growth of fungi in the paints or the cutting oil” value [3] was “controlled”.
For CC(=O)Oc1ccccc1C(=O)NC=C(Cl)Cl [Compound No. 6, O-acetyl-N-(2,2-dichlorovinyl) salicylamide], the “width of the region of growth-inhibition” value [4] was 7 mm, the “width of the region of growth-inhibition” value [5] was 9 mm and the “width of the region of growth-inhibition” value [6] was 5 mm. The “width of the region of growth-inhibition” value [7] was 7 mm and the Percentage of healthy seedlings at 0.25 g/box [2] was 83.2%.
For O=C(NC=C(Cl)Cl)c1ccccc1O [Compound No. 20, sodium salt of N-(β,β-dichlorovinyl) salicylamide], the “inhibition of bacteria, fungi and slime” value [8] was “inhibited for a long time”, the “width of the growth inhibition zone” value [9] was 7 mm and the “width of the growth inhibition zone” value [10] was 8 mm. The “width of the growth inhibition zone” value [11] was 6 mm, the “width of the growth inhibition zone” value [12] was 7 mm and the Degree of propagation ([13]; 7th day) was “-”. For the same compound, the Degree of propagation ([13]; 14th day) was “-”, the Degree of propagation ([13]; 21st day) was “-” and the Degree of propagation ([14]; 7th day) was “-”. For the same compound, the Degree of propagation ([14]; 14th day) was “-”, the Degree of propagation ([14]; 21st day) was “-” and the Degree of propagation ([15]; 7th day) was “-”. For the same compound, the Degree of propagation ([15]; 14th day) was “-”, the Degree of propagation ([15]; 21st day) was “-” and the “Degree of growth inhibition” value ([16]; 0.0125 %) was 3. For the same compound, the “Degree of growth inhibition” value ([16]; 0.025 %) was 3.
